# According to patent US20230012570A1, “BICYCLIC COMPOUND USED AS SELECTIVE ANDROGEN RECEPTOR MODULATOR” (MEDSHINE DISCOVERY INC., priority 2019, published 2023):
# Assays:
# CYP1A2 = target: T1, CYP1A2 (Homo sapiens, UniProt P05177); test: Human liver microsomal CYP inhibition experiment, CYP1A2; type: in vitro ADME
# T1 construct: Mixed human liver microsomes (HLM) were purchased from Corning Inc; tissue Corning Inc. or XenoTech, LLC. or other suppliers; host or cells: pooled human liver microsomes
# T1 sequence (P05177 1-516): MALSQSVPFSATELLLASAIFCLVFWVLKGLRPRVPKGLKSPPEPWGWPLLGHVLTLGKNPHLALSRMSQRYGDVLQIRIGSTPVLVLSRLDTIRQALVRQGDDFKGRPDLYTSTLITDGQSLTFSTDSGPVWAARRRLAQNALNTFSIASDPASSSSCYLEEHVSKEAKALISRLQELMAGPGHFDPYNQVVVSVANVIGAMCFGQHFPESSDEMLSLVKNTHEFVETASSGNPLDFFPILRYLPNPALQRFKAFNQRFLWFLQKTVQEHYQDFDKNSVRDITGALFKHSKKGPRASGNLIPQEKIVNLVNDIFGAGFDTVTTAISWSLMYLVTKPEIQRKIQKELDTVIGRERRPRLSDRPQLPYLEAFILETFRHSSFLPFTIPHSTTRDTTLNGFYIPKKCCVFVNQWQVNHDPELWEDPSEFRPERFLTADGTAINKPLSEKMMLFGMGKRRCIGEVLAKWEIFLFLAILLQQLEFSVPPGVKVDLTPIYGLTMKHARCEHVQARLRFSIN
# Experimental: (§1) Experiment Embodiment 4: Human Liver Microsomal CYP Inhibition Experiment
# (§2) The inhibitory effects of the test compound 3A and VK5211 on the activities of human liver microsomal cytochrome P450 isozymes (CYP1A2, CYP2C9, CYP2C19, CYP2D6 and CYP3A4) were determined.
# (§3) Mixed human liver microsomes (HLM) were purchased from Corning Inc. (Steuben, New York, USA) or XenoTech, LLC. (Lenexa, Kans., USA) or other suppliers, and were stored at a temperature below −60° C. before use.
# (§4) First, the test compound (10.0 mM) was gradient diluted to prepare working solution (100×final concentration), and the concentrations of the working solution were: 5.00, 1.50, 0.500, 0.150, 0.0500, 0.0150, 0.00500 mM, and a working solution of each positive inhibitor of P450 isozymes (CYP1A2, CYP2C9, CYP2C19, CYP2D6, and CYP3A4) and a specific substrate mixture thereof (5 in 1) were prepared at the same time; human liver microsomes stored in a refrigerator at a temperature lower than −60° C. were put on ice to thaw, and when all the human liver microsomes were dissolved, the microsomes were diluted with potassium phosphate buffer (PB) to prepare a working solution of a certain concentration (0.253 mg/mL). […] The concentration of metabolites produced by the probe substrate in the sample was determined by liquid chromatography-tandem mass spectrometry (LC-MS/MS) method. […]
# [1] = system: muscle growth model of female rats; test: In vivo pharmacodynamic study for muscle growth in female rats; conditions: female SD rats, 10 mg/kg oral, QD × 37 days
# Text: Experimental Embodiment 3: In Vivo Pharmacodynamic Study of the Compounds of the Present Disclosure for Muscle Growth in Female Rats
# From 16 female SD rats, 12 were selected and randomly divided into 2 groups of 6 animals each according to their body weight, with 2 spare animals in each group; the vehicle was (5% Tween 80+90% polyethylene glycol 400+5% polyvinylpyrrolidone K30): 1% carboxymethyl cellulose=1:9 (v/v).
# The rats were acclimatized in the ecological feeding box for 1 week at approximately 2 months of age, and after the acclimatization period, the rats were divided equally into 2 groups (n=6) according to body weight, and the vehicle and compound 3A were administered by gavage, once a day, for 5 weeks, at which time the animals were euthanized, and the tissues (muscle tissue: levator anal muscle, vaginal smooth muscle and gastrocnemius; gonad-related tissue: clitoris) were collected by necropsy and weighed.
# CYP3A4 = target: T2, CYP3A4 (Homo sapiens, UniProt P08684); test: Human liver microsomal CYP inhibition experiment, CYP3A4; type: in vitro ADME
# T2 construct: Mixed human liver microsomes (HLM) were purchased from Corning Inc; tissue Corning Inc. or XenoTech, LLC. or other suppliers; host or cells: pooled human liver microsomes
# Experimental: as §1, §2, §3, §4
# CYP2C9 = target: T3, CYP2C9 (Homo sapiens, UniProt P11712); test: Human liver microsomal CYP inhibition experiment, CYP2C9; type: in vitro ADME
# T3 construct: Mixed human liver microsomes (HLM) were purchased from Corning Inc; tissue Corning Inc. or XenoTech, LLC. or other suppliers; host or cells: pooled human liver microsomes
# Experimental: as §1, §2, §3, §4
# CYP2D6 = target: T4, CYP2D6 (Homo sapiens, UniProt P10635); test: Human liver microsomal CYP inhibition experiment, CYP2D6; type: in vitro ADME
# T4 construct: Mixed human liver microsomes (HLM) were purchased from Corning Inc; tissue Corning Inc. or XenoTech, LLC. or other suppliers; host or cells: pooled human liver microsomes
# Experimental: as §1, §2, §3, §4
# T3 sequence (P11712 whole entry): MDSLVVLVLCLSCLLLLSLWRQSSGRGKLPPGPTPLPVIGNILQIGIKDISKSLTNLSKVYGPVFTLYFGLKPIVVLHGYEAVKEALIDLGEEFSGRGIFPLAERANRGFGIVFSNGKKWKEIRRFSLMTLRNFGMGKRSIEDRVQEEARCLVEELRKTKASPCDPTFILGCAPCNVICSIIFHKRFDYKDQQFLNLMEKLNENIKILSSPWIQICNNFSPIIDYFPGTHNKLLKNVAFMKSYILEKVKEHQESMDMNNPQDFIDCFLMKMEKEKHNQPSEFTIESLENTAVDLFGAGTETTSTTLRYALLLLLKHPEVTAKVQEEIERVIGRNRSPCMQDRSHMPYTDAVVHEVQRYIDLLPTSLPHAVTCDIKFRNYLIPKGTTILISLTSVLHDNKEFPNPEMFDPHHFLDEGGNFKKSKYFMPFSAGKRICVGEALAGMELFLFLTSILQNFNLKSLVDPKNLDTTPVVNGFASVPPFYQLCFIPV
# T2 sequence (P08684 whole entry): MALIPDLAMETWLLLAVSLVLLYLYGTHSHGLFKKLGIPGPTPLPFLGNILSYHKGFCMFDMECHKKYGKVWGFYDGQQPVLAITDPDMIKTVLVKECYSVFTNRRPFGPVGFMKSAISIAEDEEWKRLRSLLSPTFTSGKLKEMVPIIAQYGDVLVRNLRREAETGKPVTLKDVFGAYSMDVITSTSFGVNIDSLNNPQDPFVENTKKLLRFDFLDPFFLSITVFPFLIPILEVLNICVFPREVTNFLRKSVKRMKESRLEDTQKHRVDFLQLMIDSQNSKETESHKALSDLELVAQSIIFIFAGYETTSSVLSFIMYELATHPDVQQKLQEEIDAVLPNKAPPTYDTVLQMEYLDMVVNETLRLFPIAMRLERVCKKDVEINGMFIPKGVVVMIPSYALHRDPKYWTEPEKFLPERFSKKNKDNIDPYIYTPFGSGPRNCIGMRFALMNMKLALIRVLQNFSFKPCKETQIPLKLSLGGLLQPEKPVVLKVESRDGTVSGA
# T4 sequence (P10635 whole entry): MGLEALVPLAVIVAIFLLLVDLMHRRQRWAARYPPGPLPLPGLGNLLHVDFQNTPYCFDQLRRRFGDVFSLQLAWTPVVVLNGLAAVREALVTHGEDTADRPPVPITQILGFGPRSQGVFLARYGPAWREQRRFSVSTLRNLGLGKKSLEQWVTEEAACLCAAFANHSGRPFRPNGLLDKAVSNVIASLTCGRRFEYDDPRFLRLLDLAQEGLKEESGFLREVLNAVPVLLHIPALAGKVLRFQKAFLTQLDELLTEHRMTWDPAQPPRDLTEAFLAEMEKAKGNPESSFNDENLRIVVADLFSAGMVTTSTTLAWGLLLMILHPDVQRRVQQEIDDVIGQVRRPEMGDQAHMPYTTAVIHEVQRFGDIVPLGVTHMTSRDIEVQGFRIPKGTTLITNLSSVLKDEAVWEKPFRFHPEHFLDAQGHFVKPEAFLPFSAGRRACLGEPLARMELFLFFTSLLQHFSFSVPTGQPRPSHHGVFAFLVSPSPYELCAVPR
smiles,measurement,setting,value
"N#Cc1ccc(N2CC3CC3C2C(O)C(F)(F)F)cc1Cl (single isomer, unassigned) [Compound 3A]",IC50,CYP1A2,29.3 µM
same,abnormalities / tolerability of the animals,[1],no significant abnormalities
same,increase of animal body weight compared with the vehicle group,[1],20%
same,increase of animal muscle weight compared with the vehicle group,[1],34%
same,increase of clitoral weight compared with the vehicle group (gonad-related tissue),[1],19%
same,IC50,CYP3A4,> 50 µM
same,IC50,CYP2C9,> 50 µM
same,IC50,CYP2D6,> 50 µM
